Measurements taken from US10077261B2, “Imidazolin-5-one derivative useful as FASN inhibitors for the treatment of cancer” (Janssen Pharmaceutica NV, priority 2012, dated 2018).

Biological target: T1, hFASN enzyme (full length) (Homo sapiens, UniProt P49327)
T1 construct: 10 μL hFASN enzyme (full length, 300 ng, purified in house); made in house
Experiment: Fatty Acid Synthase (FASN) inhibition scintillation proximity assay
Type: biochemical
Conditions: for inhibition at 10 µM: read-out: Human FASN % inhibition @ 10 μM, 10 μM test compound; for IC50: read-out: Human FASN pIC50 (converted)
Protocol: In this assay, inhibition of FASN activity is measured using ^3H-acetyl-CoA and malonyl-CoA as substrates. ^3H-Acetyl CoA is converted to ^3H-palmitate through a series of reactions by the FASN protein, which contains 7 functional domains and carries out 7 enzymatic reactions to ultimately produce ^3H-palmitate. The assay principle is based upon the fact that ^3H-acetyl-CoA is hydrophilic and the end product, ^3H-palmitate is hydrophobic.
10 μL assay buffer (100 mM KH2PO4 pH 7.5, 1 mM DTT) (20 μL in blanks) was added to a 384-well white optiplate plate (Perkin Elmer). 0.9 μL test compound (at concentrations of 30 μM, 10 μM, 3 μM, 1 μM, 0.30 μM, 0.10 μM, 0.03 μM and 0.01 μM)/DMSO and 10 μL hFASN enzyme (full length, 300 ng, purified in house) or 10 μL assay buffer was added to the wells. […] The reaction was stopped by adding 20 μL Streptavidin coupled imaging beads (25 mg/ml). After incubation for 30 minutes at room temperature in the dark, the 384 well plate was centrifuged at 1500 rpm for 3 minutes and was measured after at least 24 hrs by the LEADseeker™, measuring emission using a 610±20 nm pass filter.
where mLC and mHC were the means of the low control wells and high control wells on the plate, after manual exclusion of outliers. A plot of Controlmin versus test compound concentration was fitted to a 4-parameter logistic curve using a non-linear least squares regression method.

T1 sequence (P49327 whole entry): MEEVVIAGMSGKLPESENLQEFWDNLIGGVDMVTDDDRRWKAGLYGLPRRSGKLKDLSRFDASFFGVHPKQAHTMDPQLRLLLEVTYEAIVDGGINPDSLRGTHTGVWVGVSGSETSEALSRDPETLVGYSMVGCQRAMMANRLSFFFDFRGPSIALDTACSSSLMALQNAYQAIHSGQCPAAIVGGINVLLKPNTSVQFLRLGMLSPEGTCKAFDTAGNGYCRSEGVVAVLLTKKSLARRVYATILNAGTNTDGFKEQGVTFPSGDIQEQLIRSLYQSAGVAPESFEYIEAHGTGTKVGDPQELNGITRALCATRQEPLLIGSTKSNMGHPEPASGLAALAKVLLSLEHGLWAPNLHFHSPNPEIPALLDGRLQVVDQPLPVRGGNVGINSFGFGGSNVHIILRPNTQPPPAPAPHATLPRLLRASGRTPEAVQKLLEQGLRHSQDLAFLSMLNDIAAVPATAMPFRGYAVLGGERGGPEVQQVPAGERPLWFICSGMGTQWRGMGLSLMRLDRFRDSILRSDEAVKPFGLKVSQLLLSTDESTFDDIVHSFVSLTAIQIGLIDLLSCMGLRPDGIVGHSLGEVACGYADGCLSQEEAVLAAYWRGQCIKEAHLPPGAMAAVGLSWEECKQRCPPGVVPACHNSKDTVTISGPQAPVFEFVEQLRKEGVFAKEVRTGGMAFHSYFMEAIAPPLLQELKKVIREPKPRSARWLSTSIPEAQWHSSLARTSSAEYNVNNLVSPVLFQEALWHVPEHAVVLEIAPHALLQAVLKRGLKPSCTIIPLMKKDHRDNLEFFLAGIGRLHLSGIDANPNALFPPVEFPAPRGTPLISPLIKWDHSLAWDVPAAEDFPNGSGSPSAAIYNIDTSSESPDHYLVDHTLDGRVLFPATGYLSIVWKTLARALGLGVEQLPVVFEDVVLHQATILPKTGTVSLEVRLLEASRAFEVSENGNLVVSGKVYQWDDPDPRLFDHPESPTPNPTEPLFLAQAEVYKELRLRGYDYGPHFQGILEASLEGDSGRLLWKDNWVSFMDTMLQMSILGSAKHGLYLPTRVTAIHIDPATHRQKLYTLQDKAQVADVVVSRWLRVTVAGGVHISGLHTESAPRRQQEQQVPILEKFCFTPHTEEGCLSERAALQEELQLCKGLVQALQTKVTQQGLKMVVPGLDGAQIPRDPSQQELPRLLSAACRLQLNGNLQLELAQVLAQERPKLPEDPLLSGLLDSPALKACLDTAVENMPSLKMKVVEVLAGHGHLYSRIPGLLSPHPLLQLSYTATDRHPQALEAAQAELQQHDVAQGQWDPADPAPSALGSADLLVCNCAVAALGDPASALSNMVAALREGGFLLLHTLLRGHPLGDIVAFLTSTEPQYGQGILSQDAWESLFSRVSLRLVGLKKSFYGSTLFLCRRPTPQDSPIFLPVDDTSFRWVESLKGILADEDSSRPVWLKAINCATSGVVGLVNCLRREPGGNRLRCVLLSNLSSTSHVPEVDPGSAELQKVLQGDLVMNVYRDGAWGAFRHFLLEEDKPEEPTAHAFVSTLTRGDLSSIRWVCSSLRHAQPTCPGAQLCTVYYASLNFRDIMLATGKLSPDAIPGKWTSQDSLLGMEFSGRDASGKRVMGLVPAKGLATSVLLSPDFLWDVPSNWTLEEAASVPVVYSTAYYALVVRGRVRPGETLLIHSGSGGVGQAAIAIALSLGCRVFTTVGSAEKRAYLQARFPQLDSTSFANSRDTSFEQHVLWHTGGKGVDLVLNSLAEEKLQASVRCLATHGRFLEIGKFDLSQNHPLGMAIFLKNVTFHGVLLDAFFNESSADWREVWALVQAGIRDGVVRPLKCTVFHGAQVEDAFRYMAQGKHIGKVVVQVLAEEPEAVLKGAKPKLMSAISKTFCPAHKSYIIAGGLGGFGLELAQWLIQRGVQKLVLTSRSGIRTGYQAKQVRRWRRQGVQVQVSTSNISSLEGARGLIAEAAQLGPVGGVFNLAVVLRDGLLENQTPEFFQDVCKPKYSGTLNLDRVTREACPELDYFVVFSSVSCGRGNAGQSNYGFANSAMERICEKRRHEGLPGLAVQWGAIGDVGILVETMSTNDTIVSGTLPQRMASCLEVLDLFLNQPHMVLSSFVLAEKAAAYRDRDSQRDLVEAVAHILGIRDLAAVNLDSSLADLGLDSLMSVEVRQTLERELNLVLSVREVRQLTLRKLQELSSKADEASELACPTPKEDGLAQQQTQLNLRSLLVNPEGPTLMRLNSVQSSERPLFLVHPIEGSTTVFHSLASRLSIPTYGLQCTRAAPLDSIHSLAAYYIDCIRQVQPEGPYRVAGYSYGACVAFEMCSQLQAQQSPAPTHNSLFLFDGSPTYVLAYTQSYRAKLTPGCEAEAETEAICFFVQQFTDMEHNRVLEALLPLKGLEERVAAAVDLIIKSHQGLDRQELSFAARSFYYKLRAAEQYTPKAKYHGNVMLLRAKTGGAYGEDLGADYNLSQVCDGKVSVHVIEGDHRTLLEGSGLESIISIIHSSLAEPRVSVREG

Row | inhibition at 10 µM | IC50 | SMILES
1 | 119% | 0.0363 µM | CC(C)C(=O)N1CCC2(CC1)N=C(c1ccc(-c3ccc4cnccc4c3)cc1)N(C[C@@H]1CCN(C(=O)C3CC3)C1)C2=O [compound 143, 3-{[(3R)-1-(Cyclopropylcarbonyl)pyrrolidin-3-yl]methyl}-2-(4-isoquinolin-6-ylphenyl)-8-(2-methylpropanoyl)-1,3,8-triazaspiro[4.5]dec-1-en-4-one]
2 | 117% | 0.0631 µM | CC(=O)N1CCC2(CC1)N=C(c1ccc(-c3ccc4cnccc4c3)cc1)N(C[C@@H]1CCN(C(=O)C3CC3)C1)C2=O [compound 144, 8-Acetyl-3-{[(3R)-1-(cyclopropylcarbonyl)pyrrolidin-3-yl]methyl}-2-(4-isoquinolin-6-ylphenyl)-1,3,8-triazaspiro[4.5]dec-1-en-4-one]
3 | 106% | 0.398 µM | CN(C)c1cccc(-c2ccc(C3=NC4(CC4)C(=O)N3C[C@@H]3CCN(C(=O)C4CC4)C3)cc2)c1 [compound 145, 6-{[(3R)-1-(Cyclopropylcarbonyl)pyrrolidin-3-yl]methyl}-5-[3′-(dimethylamino)biphenyl-4-yl]-4,6-diazaspiro[2.4]hept-4-en-7-one]
4 | 38% | > 10 µM | O=C(C1CC1)N1CC[C@@H](CN2C(=O)C3(CC3)N=C2c2ccc(-c3cccc(OC(F)(F)F)c3)cc2)C1 [compound 146, 6-{[(3R)-1-(Cyclopropylcarbonyl)pyrrolidin-3-yl]methyl}-5-[3′-(trifluoromethoxy)biphenyl-4-yl]-4,6-diazaspiro[2.4]hept-4-en-7-one]
5 | 89.5% | 0.0708 µM | CC(=O)N1CCC2(CC1)N=C(c1ccc(-c3ccc4[nH]ccc4c3)cc1)N(C[C@@H]1CCN(C(=O)C3CC3)C1)C2=O [compound 147, (R)-2-(4-(1H-Indol-5-yl)phenyl)-8-acetyl-3-((1-(cyclopropanecarbonyl)pyrrolidin-3-yl)methyl)-1,3,8-triazaspiro[4.5]dec-1-en-4-one]
6 | 105% | 0.302 µM | CC(=O)N1CCC2(CC1)N=C(c1ccc(-c3ccc4[nH]ncc4c3)cc1)N(C[C@@H]1CCN(C(=O)C3CC3)C1)C2=O [compound 148, 8-Acetyl-3-{[(3R)-1-(cyclopropylcarbonyl)pyrrolidin-3-yl]methyl}-2-[4-(1H-indazol-5-yl)phenyl]-1,3,8-triazaspiro[4.5]dec-1-en-4-one]
7 | 113% | 0.105 µM | CC(=O)N1CCC2(CC1)N=C(c1ccc(-c3ccc4occc4c3)cc1)N(C[C@@H]1CCN(C(=O)C3CC3)C1)C2=O [compound 150, 8-Acetyl-2-[4-(1-benzofuran-5-yl)phenyl]-3-{[(3R)-1-(cyclopropylcarbonyl)pyrrolidin-3-yl]methyl}-1,3,8-triazaspiro[4.5]dec-1-en-4-one]
8 | 112% | 0.129 µM | CC(C)C(=O)N1CCC2(CC1)N=C(c1ccc(-c3ccc4occc4c3)cc1)N(C[C@@H]1CCN(C(=O)C3CC3)C1)C2=O [compound 151, 2-[4-(1-Benzofuran-5-yl)phenyl]-3-{[(3R)-1-(cyclopropylcarbonyl)pyrrolidin-3-yl]methyl}-8-(2-methylpropanoyl)-1,3,8-triazaspiro[4.5]dec-1-en-4-one]
9 | 123% | 0.123 µM | O=C(C1CC1)N1CCC2(CC1)N=C(c1ccc(-c3ccc4occc4c3)cc1)N(C[C@@H]1CCN(C(=O)C3CC3)C1)C2=O [compound 152, 2-[4-(1-Benzofuran-5-yl)phenyl]-8-(cyclopropylcarbonyl)-3-{[(3R)-1-(cyclopropylcarbonyl)pyrrolidin-3-yl]methyl}-1,3,8-triazaspiro[4.5]dec-1-en-4-one]
10 | 116% | 0.105 µM | CN(C)CC(=O)N1CCC2(CC1)N=C(c1ccc(-c3ccc4occc4c3)cc1)N(C[C@@H]1CCN(C(=O)C3CC3)C1)C2=O [compound 153, 2-[4-(1-Benzofuran-5-yl)phenyl]-3-{[(3R)-1-(cyclopropylcarbonyl)pyrrolidin-3-yl]methyl}-8-(N,N-dimethylglycyl)-1,3,8-triazaspiro[4.5]dec-1-en-4-one]
